From patent publication US8114882B2, “(1H-indol-7-yl)-(pyrimidin-2-ylamino)methanone derivatives and related compounds as IGF-R1 inhibitors for the treatment of cancer” (Merck Patent GmbH, priority 2005, dated 2012)

Target: T1, IGF-1R (Homo sapiens, UniProt P08069)
T1 construct: Cultivated human tumour cells which express the IGF1 receptor (IGF1R); endogenous in cells
Assay: Inhibition of IGF-1R (IC50): IGF1-stimulated IGF1R autophosphorylation in human tumour cells, Capture-ELISA or LUMINEX
Type: cell-based
Details: Table 1; human tumour cells expressing IGF1R (for example MCF-7 or Calu-6), 45 min pre-treatment, 5 min IGF1 stimulation
Experimental: Cultivated human tumour cells which express the IGF1 receptor (IGF1R) (for example MCF-7 or Calu-6) are stimulated using human IGF1, the natural ligand of IGF1R. The stimulation induces autophosphorylation of tyrosine residues in the cytoplasmatic IGF1R domain, which triggers signal transduction cascades, which result in apoptosis inhibition and cell proliferation.
The amount of phosphorylated IGF1R is determined by a receptor-specific Capture-ELISA or an analogous LUMINEX assay. The IGF1R from cell lysates is bound to a 96-well ELISA plate or LUMINEX beads (“capturing”) by means of a specific antibody, and the tyrosine phosphorylation is detected using a biotin-labelled anti-phosphotyrosine antibody and a streptavidin peroxidase conjugate by a chemoluminescence method or by means of a fluorescence-labelled anti-phosphotyrosine antibody.
In order to determine the activity of kinase inhibitors, cells are pre-treated with increasing concentrations of these compounds for 45 min and subsequently stimulated using IGF1 for 5 min. As internal control, the biological activity of the ligand IGF1 is checked and a concentration series of an IGF1R reference inhibitor measured.

T1 sequence (P08069 31-1367): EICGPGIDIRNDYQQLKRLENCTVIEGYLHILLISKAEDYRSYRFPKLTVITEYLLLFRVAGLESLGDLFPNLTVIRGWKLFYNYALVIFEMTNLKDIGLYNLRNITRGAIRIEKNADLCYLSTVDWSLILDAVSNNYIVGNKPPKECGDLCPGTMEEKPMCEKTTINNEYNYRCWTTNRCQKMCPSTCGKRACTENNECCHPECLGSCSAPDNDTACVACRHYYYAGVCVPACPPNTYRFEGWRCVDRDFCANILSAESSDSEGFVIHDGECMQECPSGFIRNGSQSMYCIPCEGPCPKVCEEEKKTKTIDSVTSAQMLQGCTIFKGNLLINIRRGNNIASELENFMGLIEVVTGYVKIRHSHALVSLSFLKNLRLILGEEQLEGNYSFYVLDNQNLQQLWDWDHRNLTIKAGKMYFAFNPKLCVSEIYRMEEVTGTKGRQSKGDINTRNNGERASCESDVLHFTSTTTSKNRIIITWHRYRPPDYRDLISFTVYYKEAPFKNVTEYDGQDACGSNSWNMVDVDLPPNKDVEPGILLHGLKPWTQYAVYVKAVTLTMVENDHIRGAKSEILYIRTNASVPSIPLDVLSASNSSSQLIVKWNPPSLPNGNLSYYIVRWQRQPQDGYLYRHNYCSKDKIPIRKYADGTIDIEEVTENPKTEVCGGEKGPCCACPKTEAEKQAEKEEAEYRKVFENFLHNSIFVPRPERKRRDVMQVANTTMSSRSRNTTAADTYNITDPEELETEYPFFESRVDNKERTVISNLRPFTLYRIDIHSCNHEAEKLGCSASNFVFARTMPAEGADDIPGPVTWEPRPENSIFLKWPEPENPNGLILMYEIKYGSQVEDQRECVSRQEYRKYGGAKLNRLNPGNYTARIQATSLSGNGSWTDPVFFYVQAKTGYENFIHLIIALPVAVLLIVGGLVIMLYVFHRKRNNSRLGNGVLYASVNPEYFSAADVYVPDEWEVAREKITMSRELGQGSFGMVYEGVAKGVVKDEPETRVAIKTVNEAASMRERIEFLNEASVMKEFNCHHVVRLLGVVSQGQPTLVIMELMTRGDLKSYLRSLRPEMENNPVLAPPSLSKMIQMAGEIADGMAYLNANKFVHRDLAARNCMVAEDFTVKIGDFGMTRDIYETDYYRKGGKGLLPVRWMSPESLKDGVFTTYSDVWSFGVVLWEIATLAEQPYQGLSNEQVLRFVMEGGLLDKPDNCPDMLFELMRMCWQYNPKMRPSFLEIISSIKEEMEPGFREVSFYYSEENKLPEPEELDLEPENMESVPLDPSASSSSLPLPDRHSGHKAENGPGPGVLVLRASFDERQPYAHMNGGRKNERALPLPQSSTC

Compound	IC50
O=C(c1ccc(Nc2ccnc(Nc3cc(-c4ccco4)[nH]n3)n2)cc1)c1cccc2cc[nH]c12	15000 nM
O=C(c1ccc(Nc2ccnc(Nc3cc(-c4ccccc4)[nH]n3)n2)cc1)c1cccc2cc[nH]c12	10000 nM
COc1cc(Nc2nccc(Nc3ccc(C(=O)c4cccc5cc[nH]c45)cc3)n2)cc(OC)c1OC	2200 nM
N#CCCNc1nccc(Nc2ccc(C(=O)c3cccc4cc[nH]c34)cc2)n1	3100 nM
CC(C)(C)c1cc(Nc2nccc(Nc3ccc(C(=O)c4cccc5cc[nH]c45)cc3)n2)n[nH]1	12000 nM
O=C(c1c[nH]nc1Nc1nccc(Nc2cnc3ccccc3c2)n1)c1cccc2cc[nH]c12	630 nM
N#Cc1c[nH]c2c(C(=O)c3ccc(Nc4ccnc(Nc5ccc(C(=O)c6cccc7c(C#N)c[nH]c67)cc5)n4)cc3)cccc12	490 nM
O=C(c1ccc(Nc2ccnc(NCC3CC(O)C3)n2)cc1)c1cccc2cc[nH]c12 (stereo not drawn)	1200 nM
O=C(c1ccc(Nc2ccnc(Nc3ccc(C(=O)c4cccc5cc[nH]c45)cc3)n2)cc1)c1cccc2cc[nH]c12	1800 nM
O=C(c1ccc(Nc2ccnc(Cl)n2)cc1)c1cccc2cc[nH]c12	2600 nM

Further lines, results first:

IC50	Compound
150 nM	O=C(c1ccc(Nc2ccnc(Nc3ncc[nH]3)n2)cc1)c1cccc2cc[nH]c12
2400 nM	O=C(c1ccc(Nc2ccnc(Nc3cc[nH]n3)n2)cc1)c1cccc2cc[nH]c12
2900 nM	Cc1cc(Nc2nccc(Nc3ccc(C(=O)c4cccc5cc[nH]c45)cc3)n2)n[nH]1
7850 nM	O=C(c1ccc(Nc2ccnc(Cl)n2)cc1)c1cccc2c1NCC2
2400 nM	O=C(c1ccc(Nc2nccc(NCc3cccnc3)n2)cc1)c1cccc2c1NCC2
